Series [1] can be described thus: Blood glucose response (glycemic index, GI) after consumption, randomized cross over analysis. The format is in vivo, human. To be noted: ten healthy subjects, 25 g carbohydrate and 250 ml water, 0 to 180 minutes, compared to isomaltulose. The procedure:
(§1) The effect of trehalulose on the blood glucose response (glycemic index, GI) and the insulin response (insulinemic index, II) was examined in comparison to isomaltulose. The analysis was done as a randomized cross over analysis on ten healthy subjects of both sex. Blood glucose- and insulin-profiles were taken after consumption of isomaltulose or trehalulose (each 25 g carbohydrate and 250 ml water) for an interval of 0 to 180 minutes at the following time points 0, 15, 30, 45, 60, 90, 120, 150 and 180 minutes.

Series [2] in a line: Blood insulin response (insulinemic index, II) after consumption, randomized cross over analysis. Particulars: ten healthy subjects, 25 g carbohydrate and 250 ml water, 0 to 180 minutes. It counts as in vivo, human. The procedure: as §1
Series [3] can be described thus: Stability of trehalulose during preparation (cooking) of jellies. It counts as physicochemical. Particulars: when cooking the jellies. Here is the method:
In the following, four recipes for jellies using as sweeteners a mixture of sucrose and glucose and four recipes using the trehalulose-containing composition, that means vitalose, of the present invention are prepared. The jellies prepared were tested comparatively in storage and TPA-analysis.
In all of the jelly recipes the conventional sweetener combination of sucrose and glucose could be successfully replaced by the trehalulose-containing composition, that means vitalose, of the present invention. The preparation using the trehalulose-containing composition, that means vitalose, was exactly as for the sucrose/glucose compositions.

In the case of `O=C(CO[C@H]1O[C@H](CO)[C@@H](O)[C@H](O)[C@H]1O)[C@@H](O)[C@H](O)[C@H](O)CO` [trehalulose, 1-O-α-D-glucopyranosyl-D-fructose], the “blood glucose response (GI), blood glucose level” value in series [1] was “increased and longer sustaining supply of glucose”. In addition, the “insulin response (II), blood insulin level” value in series [2] is reported as “significantly lower insulin response (II) than isomaltulose”. Besides, the degradation during preparation entry in series [3] is on record as “no degradation of trehalulose was observed”.

As for `O=C(CO)[C@@H](O)[C@H](O)[C@H](O)CO[C@H]1O[C@H](CO)[C@@H](O)[C@H](O)[C@H]1O` [isomaltulose, 6-O-α-D-glucopyranosyl-D-fructose, reference compound], the “insulin response (II), blood insulin level” value in series [2] is listed as “in parallel to the blood glucose response”.

These data come from patent US9707249B2, “Trehalulose-containing composition, its preparation and use” (SÜDZUCKER AKTIENGESELLSCHAFT MANNHEIM/OCHSENFURT, priority 2009, dated 2017).
